Common to all, as to type: cell-based
One assay concerns IL-6. Put plainly: IL-6 inhibition in LPS-stimulated THP-1 cells (HTRF). The settings on record: Homo sapiens; for pEC50: LPS 500 ng/mL, 22 hours, IL6 HTRF; for inhibition at 10 µM: given for EC50 >10 μM, LPS, IL6, 10 μM, read-out: percent inhibition at 10 μM.
The test system of assay [1] is primary human fibroblasts derived from IPF patients (LL29 cells). In words: Inhibition of fibrotic process: αSMA staining in TGF-β1 treated LL29 fibroblasts. The settings on record: Fibroblast; for pEC50: 96 h, TGF-β1 20 ng/mL, 4 days, % cells positive for αSMA; for inhibition at 10 µM: given for EC50 >10 μM, TGF-β1, αSMA, read-out: percent inhibition at 10 μM. Put shortly: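 LL29 cells at 1,500/well in F12 with 1% FBS, compounds at 1 μM–1.87 nM (11-point, 0.1% DMSO), TGF-β1 20 ng/mL added 1 h later, 4 days at 37 °C. SYTOX-positive cells excluded; % αSMA-positive cells by immunofluorescence imaging, normalized to TGF-β1/DMSO wells, triplicates fitted for EC50; above 10 μM, % inhibition at 10 μM given.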

Another assay has as its system SW480 colon cancer cells. Put plainly: Cell viability assay (CellTiter-Blue) in SW480 colon cancer cells. Particulars: Homo sapiens; for pEC50: 96 h, four days, CellTiter-Blue; for inhibition at 10 µM: given for EC50 >10 μM, read-out: percent inhibition at 10 μM. Put shortly:
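Resazurin reduction (Ex 560/Em 590 nm, ~3 h reagent incubation) served as the viability read-out after SW480 cells were treated for four days at 37 °C. Doses ran from 10 μM down to 0.0045 μM in eight 1:3 steps. Curves fitted non-linearly for EC50, else % inhibition at 10 μM reported.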

pEC50: −log10 of the molar value. Where only a bound is given, the exact number is not on record here.

Take `Cc1ncc(-c2ccc3[nH]nc(-c4cc5c(-c6ccncc6)nccc5[nH]4)c3n2)n1C` [Compound 573, 5-(1,2-Dimethyl-1H-imidazol-5-yl)-3-(4-(pyridin-4-yl)-1H-pyrrolo[3,2-c]pyridin-2-yl)-1H-pyrazolo[4,3-b]pyridine]: the pEC50 in the assay with IL-6 was under 5.00; in assay [1], 7.14; in the assay on SW480 colon cancer cells, under 5.00. The inhibition at 10 µM with IL-6 was 0%; in the assay with SW480 colon cancer cells, 25.6%.
In the case of `CCNCc1cncc(-c2ccc3[nH]nc(-c4cc5cnccc5[nH]4)c3n2)c1` [Compound 258, N-((5-(3-(1H-Pyrrolo[3,2-c]pyridin-2-yl)-1H-pyrazolo[4,3-b]pyridin-5-yl)pyridin-3-yl)methyl)ethanamine], the pEC50 with IL-6 was 6.34; in assay [1], under 5.00; in the assay on SW480 colon cancer cells it was 5.78. Also, the inhibition at 10 µM in assay [1] is 22.6%.
In the case of `Cc1ccncc1-c1ccc2[nH]nc(-c3cc4c(-c5cc(F)cc(CNS(C)(=O)=O)c5)nccc4[nH]3)c2n1` [Compound 481, N-(3-Fluoro-5-(2-(5-(4-methylpyridin-3-yl)-1H-pyrazolo[4,3-b]pyridin-3-yl)-1H-pyrrolo[3,2-c]pyridin-4-yl)benzyl)methanesulfonamide], the pEC50 is 7.35 in the assay with IL-6, 6.51 in assay [1] and 5.98 in the assay with SW480 colon cancer cells.
Take `Fc1cccc(-c2nccc3[nH]c(-c4n[nH]c5ccc(-c6cncc(OCc7ccccc7)c6)nc45)cc23)c1` [Compound 518, 5-(5-(Benzyloxy)pyridin-3-yl)-3-(4-(3-fluorophenyl)-1H-pyrrolo[3,2-c]pyridin-2-yl)-1H-pyrazolo[4,3-b]pyridine]: the figures for the pEC50 (with IL-6; in assay [1]; in the assay on SW480 colon cancer cells) were under 5.00, 5.98 and 5.87, respectively. Moreover, the inhibition at 10 µM in the assay with IL-6 was 27.5%.
With `Fc1ccccc1-c1nccc2[nH]c(-c3n[nH]c4ccc(-c5cn[nH]c5)nc34)cc12` [Compound 539, 3-(4-(2-Fluorophenyl)-1H-pyrrolo[3,2-c]pyridin-2-yl)-5-(1H-pyrazol-4-yl)-1H-pyrazolo[4,3-b]pyridine], the values for the pEC50 (in the assay on IL-6; in assay [1]; with SW480 colon cancer cells) were 6.99, 7.48 and 5.90, respectively.
In the case of `c1cc2[nH]c(-c3n[nH]c4ccc(-c5cncc(OC6CCCCC6)c5)nc34)cc2c(N2CCCCC2)n1` [Compound 607, 5-(5-(Cyclohexyloxy)pyridin-3-yl)-3-(4-(piperidin-1-yl)-1H-pyrrolo[3,2-c]pyridin-2-yl)-1H-pyrazolo[4,3-b]pyridine], the values for the pEC50 (in the assay with IL-6; in assay [1]; in the assay on SW480 colon cancer cells) were 5.75, under 5.00 and 6.52, respectively. Also, the inhibition at 10 µM in assay [1] is 25.4%.
In the case of `O=C(CC1CCNCC1)Nc1cncc(-c2ccc3[nH]nc(-c4cc5c(N6CCCCC6)nccc5[nH]4)c3n2)c1` [Compound 609, N-(5-(3-(4-(Piperidin-1-yl)-1H-pyrrolo[3,2-c]pyridin-2-yl)-1H-pyrazolo[4,3-b]pyridin-5-yl)pyridin-3-yl)-2-(piperidin-4-yl)acetamide], the pEC50 in the assay with IL-6 was 5.53; in assay [1], 5.97; in the assay with SW480 colon cancer cells, under 5.00. The inhibition at 10 µM with SW480 colon cancer cells was 9.7%.
For `CC(C)CC(=O)Nc1cncc(-c2ccc3[nH]nc(-c4cc5c(N6CCN(C)CC6)nccc5[nH]4)c3n2)c1` [Compound 226, 3-Methyl-N-(5-(3-(4-(4-methylpiperazin-1-yl)-1H-pyrrolo[3,2-c]pyridin-2-yl)-1H-pyrazolo[4,3-b]pyridin-5-yl)pyridin-3-yl)butanamide] the same measures were 5.50, 6.49, under 5.00 and 37.8%.
Consider `CN1CCN(c2nccc3[nH]c(-c4n[nH]c5ccc(-c6cncc(NC(=O)CC7CCNCC7)c6)nc45)cc23)CC1` [Compound 641, N-(5-(3-(4-(4-Methylpiperazin-1l-yl)-1H-pyrrolo[3,2-c]pyridin-2-yl)-1H-pyrazolo[4,3-b]pyridin-5-yl)pyridin-3-yl)-2-(piperidin-4-yl)acetamide], for which the pEC50 was under 5.00 in the assay on IL-6, 5.30 in assay [1] and under 5.00 with SW480 colon cancer cells. Also, the figures for the inhibition at 10 µM in the assay with IL-6 and in the assay with SW480 colon cancer cells were 20.6% and 16.3%, respectively.
`Fc1ccccc1-c1nccc2[nH]c(-c3n[nH]c4ccc(-c5cncc(CNCc6ccccc6)c5)nc34)cc12` [Compound 80, N-Benzyl-1-(5-(3-(4-(2-fluorophenyl)-1H-pyrrolo[3,2-c]pyridin-2-yl)-1H-pyrazolo[4,3-b]pyridin-5-yl)pyridin-3-yl)methanamine]: the pEC50 is 5.04 in the assay with IL-6, 5.78 in assay [1] and 5.67 in the assay on SW480 colon cancer cells.
For `Fc1cccc(-c2nccc3[nH]c(-c4n[nH]c5ccc(-c6cncc(CN7CCCCC7)c6)nc45)cc23)c1` [Compound 15, 3-(4-(3-Fluorophenyl)-1H-pyrrolo[3,2-c]pyridin-2-yl)-5-(5-(piperidin-1-ylmethyl)pyridin-3-yl)-1H-pyrazolo[4,3-b]pyridine] the same measures were 5.03, 6.26 and 5.94.
For the molecule `CS(=O)(=O)NCc1cc(F)cc(-c2nccc3[nH]c(-c4n[nH]c5ccc(-c6cncc(NC(=O)Cc7ccccc7)c6)nc45)cc23)c1` [Compound 486, N-(5-(3-(4-(3-Fluoro-5-(methylsulfonamidomethyl)phenyl)-1H-pyrrolo[3,2-c]pyridin-2-yl)-1H-pyrazolo[4,3-b]pyridin-5-yl)pyridin-3-yl)-2-phenylacetamide], the pEC50 (in the assay on IL-6; in assay [1]; with SW480 colon cancer cells) was under 5.00 throughout. The inhibition at 10 µM in the assay on IL-6 is 28.5%; in assay [1] it was 37.1%; with SW480 colon cancer cells it was 8.8%.
As to `Nc1cncc(-c2ccc3[nH]nc(-c4cc5c(-c6ccncc6)nccc5[nH]4)c3n2)c1` [Compound 115, 5-(3-(4-(Pyridin-4-yl)-1H-pyrrolo[3,2-c]pyridin-2-yl)-1H-pyrazolo[4,3-b]pyridin-5-yl)pyridin-3-amine], the results for the pEC50 (in the assay with IL-6; in assay [1]; in the assay with SW480 colon cancer cells) were 6.38, 6.36 and under 5.00, respectively. Moreover, the inhibition at 10 µM in the assay on SW480 colon cancer cells worked out at 5.4%.
As to `c1csc(-c2nccc3[nH]c(-c4n[nH]c5ccc(-c6ccncc6)nc45)cc23)c1` [Compound 354, 5-(Pyridin-4-yl)-3-(4-(thiophen-2-yl)-1H-pyrrolo[3,2-c]pyridin-2-yl)-1H-pyrazolo[4,3-b]pyridine], the pEC50 was under 5.00 in the assay on IL-6, 5.57 in assay [1] and 5.55 in the assay with SW480 colon cancer cells. Moreover, in the assay with IL-6, the inhibition at 10 µM amounted to 43.5%.
For `O=C(Nc1cncc(-c2ccc3[nH]nc(-c4cc5c(-c6cccc(F)c6)nccc5[nH]4)c3n2)c1)C1CCCCC1` [Compound 23, N-(5-(3-(4-(3-Fluorophenyl)-1H-pyrrolo[3,2-c]pyridin-2-yl)-1H-pyrazolo [4,3-b]pyridin-5-yl)pyridin-3-yl)cyclohexanecarboxamide] the same measures were under 5.00, 6.33, 6.30 and 10.6%.
Regarding `O=C(Nc1cncc(-c2ccc3[nH]nc(-c4cc5c(-c6ccccc6F)nccc5[nH]4)c3n2)c1)C1CC1` [Compound 76, N-(5-(3-(4-(2-Fluorophenyl)-1H-pyrrolo[3,2-c]pyridin-2-yl)-1H-pyrazolo [4,3-b]pyridin-5-yl)pyridin-3-yl)cyclopropanecarboxamide], the pEC50 is 7.02 with IL-6, 5.45 in assay [1] and 6.22 with SW480 colon cancer cells.
Regarding `CN1CCN(c2nccc3[nH]c(-c4n[nH]c5ccc(-c6cncc(NC(=O)c7ccccc7)c6)nc45)cc23)CC1` [Compound 235, N-(5-(3-(4-(4-Methylpiperazin-1l-yl)-1H-pyrrolo[3,2-c]pyridin-2-yl)-1H-pyrazolo[4,3-b]pyridin-5-yl)pyridin-3-yl)benzamide], the pEC50 in the assay with IL-6 is 6.00; in assay [1], 5.65; in the assay on SW480 colon cancer cells it was under 5.00. Besides, the inhibition at 10 µM in the assay on SW480 colon cancer cells stood at 29.1%.
In the case of `CN1CCN(c2nccc3[nH]c(-c4n[nH]c5ccc(-c6cncc(CN7CCCCC7)c6)nc45)cc23)CC1` [Compound 239, 3-(4-(4-methylpiperazin-1-yl)-1H-pyrrolo[3,2-c]pyridin-2-yl)-5-(5-(piperidin-1-ylmethyl)pyridin-3-yl)-1H-pyrazolo[4,3-b]pyridine], the results for the pEC50 (in the assay on IL-6; in assay [1]; with SW480 colon cancer cells) were 5.40, 5.82 and 5.73, respectively.
Turning to `c1ccc(-c2ccc3[nH]nc(-c4cc5c(N6CCCCC6)nccc5[nH]4)c3n2)nc1` [Compound 196, 3-(4-(Piperidin-1-yl)-1H-pyrrolo[3,2-c]pyridin-2-yl)-5-(pyridin-2-yl)-1H-pyrazolo[4,3-b]pyridine], the pEC50 in the assay on IL-6 was 5.74; in assay [1], 6.57; in the assay with SW480 colon cancer cells, 5.55.
For `CN1CCN(c2nccc3[nH]c(-c4n[nH]c5ccc(-c6cncnc6)nc45)cc23)CC1` [Compound 251, 3-(4-(4-Methylpiperazin-1l-yl)-1H-pyrrolo[3,2-c]pyridin-2-yl)-5-(pyrimidin-5-yl)-1H-pyrazolo[4,3-b]pyridine] the same measures were 6.54, 5.86 and 5.95.

Values taken from patent US10231956B2, “3-(1H-pyrrolo[3,2-C]pyridin-2-YL)-1 H-pyrazolo[4,3-B]pyridines and therapeutic uses thereof” (Samumed, LLC, priority 2015, dated 2019).
